In brackets after ≈: the same amount, converted by molar mass.
Tested on: up to 32 different microorganisms
Test: in vitro antibacterial activity (MIC), agar dilution on Brain Heart Infusion (BHI) agar with Steers replicator
Format: cell-based
Settings: unit assumed
Summary of the method: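 Twelve plates carried successive aqueous dilutions of test compound in BHI agar; inocula were 1:100 dilutions (1:10 for slow growers such as Micrococcus, Streptococcus), incubated 35°-37° C for 20 to 24 hours. MIC was the lowest concentration giving no growth, slight haze, or sparse isolated colonies versus growth control.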

Which results are given for `CC[C@H]1OC(=O)[C@H](C)C(=O)[C@H](C)[C@@H](O[C@@H]2O[C@H](C)C[C@H](N(C)C)[C@H]2O)[C@@](C)(OCC(O)C#N)C[C@@H](C)C(=O)[C@H](C)[C@@H](O)[C@]1(C)O` (stereo partly drawn) [Example 175, Compound of Formula (VIII): X is O, R is CH2—CH(OH)—CN]?
MIC (Candida albicans CCH 442 (code TT)): > 100 µg/mL; MIC (Enterococcus faecism ATCC 8043 (code II)): 0.02 µg/mL; MIC (Escherichia coli DC-2 (code SS)): > 100 µg/mL; MIC (Escherichia coli JUHL (code QQ)): > 100 µg/mL; MIC (Escherichia coli SS (code RR)): 0.78 µg/mL; MIC (Haemophilis influenzae DILL AMP R (code WW)): 64 µg/mL; MIC (Micrococcus luteus ATCC 4698 (code PP)): 0.1 µg/mL; MIC (Micrococcus luteus ATCC 9341 (code OO)): 0.05 µg/mL; MIC (Mycobacterium smegmatis ATCC 114 (code UU)): 0.78 µg/mL; MIC (Nocardia Asteroides ATCC9970 (code VV)): 0.39 µg/mL; MIC (Staphylococcus aureus 1775 (code GG)): 12.5 µg/mL; MIC (Staphylococcus aureus A5177 (code BB)): 0.39 µg/mL; MIC (Staphylococcus aureus A-5278 (code CC)): 25 µg/mL; MIC (Staphylococcus aureus ATCC 6538P (code AA)): 0.2 µg/mL; MIC (Staphylococcus aureus CMX 553 (code FF)): 0.78 µg/mL; MIC (Staphylococcus aureus CMX 642A (code DD)): 0.78 µg/mL; MIC (Staphylococcus aureus NCTC10649M (code EE)): 0.78 µg/mL; MIC (Staphylococcus epidermidis 3519 (code HH)): 0.78 µg/mL; MIC (Streptococcus Pneumonia 5649 (code ZZA)): 2 µg/mL; MIC (Streptococcus Pneumonia 5979 (code ZZ)): 8 µg/mL; MIC (Streptococcus Pneumonia ATCC6303 (code XX)): 0.03 µg/mL; MIC (Streptococcus Pneumonia GYR 1171 (code YY)): 0.03 µg/mL; MIC (Streptococcus agalactiae CMX 508 (code KK)): 0.02 µg/mL; MIC (Streptococcus bovis A-5169 (code JJ)): 0.02 µg/mL; MIC (Streptococcus pyogenes 930 (code MM)): 3.1 µg/mL; MIC (Streptococcus pyogenes EES61 (code LL)): 0.01 µg/mL; MIC (Streptococcus pyogenes PIU 2548 (code NN)): 0.39 µg/mL

Which MIC (organism code AA) does the source give for `CC[C@H]1OC(=O)[C@H](C)C(=O)[C@H](C)[C@@H](O[C@@H]2O[C@H](C)C[C@H](N(C)C)[C@H]2O)[C@@](C)(OCCNCCCCc2ccccc2)C[C@@H](C)C(=O)[C@H](C)[C@H]2NC(=O)O[C@@]21C` [Example 224] here?
The MIC was 0.39 µg/mL (≈ 0.504 µM).

And the MIC (organism code BB)?
The MIC was 0.2 µg/mL (≈ 0.258 µM).

What about the MIC (organism code CC) of the same compound?
The MIC was over 100 µg/mL.

And the MIC (organism code DD)?
Its MIC is 0.2 µg/mL (≈ 0.258 µM).

What about the MIC (organism code EE) of the same compound?
Its MIC is 0.2 µg/mL (≈ 0.258 µM).

And the MIC (organism code FF)?
Its MIC is 0.2 µg/mL (≈ 0.258 µM).

And the MIC (organism code GG)?
The MIC was over 100 µg/mL.

And the MIC (organism code HH)?
Its MIC is 0.39 µg/mL (≈ 0.504 µM).

What about the MIC (organism code II) of the same compound?
The MIC was 0.01 µg/mL (≈ 0.0129 µM).

And the MIC (organism code JJ)?
The MIC was 0.01 µg/mL (≈ 0.0129 µM).

What about the MIC (organism code KK) of the same compound?
The MIC was at most 0.005 µg/mL.

And the MIC (organism code LL)?
Its MIC is 0.01 µg/mL (≈ 0.0129 µM).

And the MIC (organism code MM)?
The MIC was over 100 µg/mL.

And the MIC (organism code NN)?
The MIC was 0.2 µg/mL (≈ 0.258 µM).

And the MIC (organism code OO)?
The MIC was 0.02 µg/mL (≈ 0.0258 µM).

What about the MIC (organism code PP) of the same compound?
The MIC was 0.2 µg/mL (≈ 0.258 µM).

What about the MIC (organism code QQ) of the same compound?
Its MIC is 25 µg/mL (≈ 32.3 µM).

What about the MIC (organism code RR) of the same compound?
The MIC was 0.2 µg/mL (≈ 0.258 µM).

What about the MIC (organism code SS) of the same compound?
Its MIC is 25 µg/mL (≈ 32.3 µM).

And the MIC (organism code TT)?
The MIC was over 100 µg/mL.

What about the MIC (organism code UU) of the same compound?
The MIC was 3.1 µg/mL (≈ 4.01 µM).

What about the MIC (organism code VV) of the same compound?
The MIC was 0.1 µg/mL (≈ 0.129 µM).

And the MIC (organism code WW)?
The MIC was 4 µg/mL (≈ 5.17 µM).

And the MIC (organism code XX)?
Its MIC is 0.03 µg/mL (≈ 0.0388 µM).

And the MIC (organism code YY)?
Its MIC is 0.03 µg/mL (≈ 0.0388 µM).

And the MIC (organism code ZZ)?
Its MIC is over 128 µg/mL.

What about the MIC (organism code ZZA) of the same compound?
Its MIC is 2 µg/mL (≈ 2.58 µM).

Which MIC (organism code AA) does the source give for `CCC1OC(=O)C(C)C(=O)C(C)C(OC2OC(C)CC(N(C)C)C2O)C(C)(OCC2CC2c2cnc3ccccc3c2)CC(C)C(=O)C(C)C2NC(=O)OC12C` (stereo not drawn) [Example 243, Compound of Formula (IX): L is CO, T is NH, R is —CH2(2-(3-quinolyl)cyclopropyl)] here?
Its MIC is 0.05 µg/mL.

And the MIC (organism code BB)?
Its MIC is 0.05 µg/mL.

And the MIC (organism code CC)?
Its MIC is over 100 µg/mL.

What about the MIC (organism code DD) of the same compound?
The MIC was 0.05 µg/mL.

What about the MIC (organism code EE) of the same compound?
Its MIC is 0.1 µg/mL.

What about the MIC (organism code FF) of the same compound?
The MIC was 0.05 µg/mL.

What about the MIC (organism code GG) of the same compound?
The MIC was over 100 µg/mL.

And the MIC (organism code HH)?
Its MIC is 0.1 µg/mL.

And the MIC (organism code II)?
The MIC was 0.02 µg/mL.

And the MIC (organism code JJ)?
Its MIC is 0.02 µg/mL.

What about the MIC (organism code KK) of the same compound?
Its MIC is 0.02 µg/mL.

What about the MIC (organism code LL) of the same compound?
The MIC was 0.02 µg/mL.

And the MIC (organism code MM)?
The MIC was 6.2 µg/mL.

What about the MIC (organism code NN) of the same compound?
The MIC was 0.1 µg/mL.

And the MIC (organism code OO)?
The MIC was 0.02 µg/mL.

What about the MIC (organism code PP) of the same compound?
The MIC was 0.02 µg/mL.

What about the MIC (organism code QQ) of the same compound?
Its MIC is 50 µg/mL.

And the MIC (organism code RR)?
The MIC was 0.2 µg/mL.

What about the MIC (organism code SS) of the same compound?
The MIC was 50 µg/mL.

What about the MIC (organism code TT) of the same compound?
Its MIC is over 100 µg/mL.

What about the MIC (organism code UU) of the same compound?
Its MIC is 0.39 µg/mL.

What about the MIC (organism code VV) of the same compound?
The MIC was 0.05 µg/mL.

And the MIC (organism code WW)?
Its MIC is 4 µg/mL.

What about the MIC (organism code XX) of the same compound?
The MIC was 0.03 µg/mL.

What about the MIC (organism code YY) of the same compound?
Its MIC is 0.03 µg/mL.

What about the MIC (organism code ZZ) of the same compound?
The MIC was 128 µg/mL.

And the MIC (organism code ZZA)?
The MIC was 0.25 µg/mL.

`CC[C@H]1OC(=O)[C@H](C)C(=O)[C@H](C)[C@@H](O[C@@H]2O[C@H](C)C[C@H](N(C)C)[C@H]2O)[C@@](C)(OCC=Cc2cnc3ccccc3c2)C[C@@H](C)C(=O)[C@H](C)[C@H]2N(N)C(=O)O[C@]12C` [Example 263, Compound of Formula (IX): L is CO, T is N(NH2), R is —CH2CH═CH-(3-quinolyl)] was tested. Which MIC (organism code AA) did it give?
Its MIC is 0.1 µg/mL.

What about the MIC (organism code BB) of the same compound?
The MIC was 0.1 µg/mL.

And the MIC (organism code CC)?
Its MIC is over 100 µg/mL.

And the MIC (organism code DD)?
The MIC was 0.1 µg/mL.

And the MIC (organism code EE)?
Its MIC is 0.1 µg/mL.

What about the MIC (organism code FF) of the same compound?
Its MIC is 0.05 µg/mL.

And the MIC (organism code GG)?
Its MIC is over 100 µg/mL.

What about the MIC (organism code HH) of the same compound?
Its MIC is 0.1 µg/mL.

What about the MIC (organism code II) of the same compound?
Its MIC is 0.01 µg/mL.

What about the MIC (organism code JJ) of the same compound?
Its MIC is 0.01 µg/mL.

And the MIC (organism code KK)?
The MIC was 0.02 µg/mL.

What about the MIC (organism code LL) of the same compound?
Its MIC is 0.02 µg/mL.

What about the MIC (organism code MM) of the same compound?
Its MIC is 50 µg/mL.

What about the MIC (organism code NN) of the same compound?
Its MIC is 0.2 µg/mL.

And the MIC (organism code OO)?
Its MIC is 0.02 µg/mL.

And the MIC (organism code PP)?
The MIC was 0.2 µg/mL.

And the MIC (organism code QQ)?
The MIC was over 100 µg/mL.

What about the MIC (organism code RR) of the same compound?
The MIC was 0.78 µg/mL.

What about the MIC (organism code SS) of the same compound?
Its MIC is over 100 µg/mL.

What about the MIC (organism code TT) of the same compound?
Its MIC is over 100 µg/mL.

And the MIC (organism code UU)?
The MIC was 0.78 µg/mL.

And the MIC (organism code VV)?
Its MIC is 0.2 µg/mL.

What about the MIC (organism code WW) of the same compound?
The MIC was 4 µg/mL.

What about the MIC (organism code XX) of the same compound?
Its MIC is 0.015 µg/mL.

What about the MIC (organism code YY) of the same compound?
The MIC was 0.015 µg/mL.

And the MIC (organism code ZZ)?
Its MIC is over 128 µg/mL.

What about the MIC (organism code ZZA) of the same compound?
The MIC was 0.25 µg/mL.

Source: patent publication USRE39591E1, “6-O-substituted ketolides having antibacterial activity” (Abbott Laboratories, priority 1996, dated 2007)
